For this experiment, the target named is T1, c-Abl (Homo sapiens, UniProt P00519).
T1 construct: gene ABL1
In words: in vitro kinase assay, dose-response. The experiment is classed as biochemical.

Molecules are shown by their SMILES.

T1 sequence (P00519 whole entry): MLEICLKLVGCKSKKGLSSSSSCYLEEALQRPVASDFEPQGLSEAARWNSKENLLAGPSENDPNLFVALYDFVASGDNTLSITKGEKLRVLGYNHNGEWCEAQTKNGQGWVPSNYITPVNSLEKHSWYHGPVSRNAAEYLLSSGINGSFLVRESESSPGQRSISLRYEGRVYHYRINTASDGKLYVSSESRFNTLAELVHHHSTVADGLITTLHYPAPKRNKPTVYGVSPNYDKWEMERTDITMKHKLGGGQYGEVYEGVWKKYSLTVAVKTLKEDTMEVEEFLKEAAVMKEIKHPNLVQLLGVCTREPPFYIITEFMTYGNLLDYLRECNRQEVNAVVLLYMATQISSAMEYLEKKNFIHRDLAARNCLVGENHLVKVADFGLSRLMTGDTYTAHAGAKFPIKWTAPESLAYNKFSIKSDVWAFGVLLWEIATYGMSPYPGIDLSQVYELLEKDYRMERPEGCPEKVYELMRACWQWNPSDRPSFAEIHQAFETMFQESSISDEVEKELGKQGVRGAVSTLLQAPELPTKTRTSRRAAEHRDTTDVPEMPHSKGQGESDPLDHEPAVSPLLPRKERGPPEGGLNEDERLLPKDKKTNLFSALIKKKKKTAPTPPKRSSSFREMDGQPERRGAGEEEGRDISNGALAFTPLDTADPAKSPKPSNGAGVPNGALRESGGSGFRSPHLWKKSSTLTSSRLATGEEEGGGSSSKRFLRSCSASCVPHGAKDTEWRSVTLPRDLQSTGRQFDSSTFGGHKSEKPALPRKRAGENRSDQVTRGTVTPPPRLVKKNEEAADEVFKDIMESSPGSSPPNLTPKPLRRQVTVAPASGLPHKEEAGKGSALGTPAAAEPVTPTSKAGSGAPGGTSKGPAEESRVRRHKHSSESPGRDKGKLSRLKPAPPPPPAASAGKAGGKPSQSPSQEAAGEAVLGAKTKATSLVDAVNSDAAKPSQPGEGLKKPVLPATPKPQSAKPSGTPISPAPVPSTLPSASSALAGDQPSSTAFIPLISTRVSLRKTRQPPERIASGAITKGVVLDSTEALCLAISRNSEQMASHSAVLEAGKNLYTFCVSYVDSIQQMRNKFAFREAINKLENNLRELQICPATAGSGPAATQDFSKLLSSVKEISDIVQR

One may read the IC50 as the concentration at which inhibition is half-maximal. For `O=C(c1ccccc1)c1ccc2nc(NC(=O)c3csc(C4CCN(c5ncnc6ccsc56)CC4)n3)[nH]c2c1` [SC75741], the IC50 is 263 nM.

For the origin of these results see paper PMC8586708, “SC75741, A Novel c-Abl Inhibitor, Promotes the Clearance of TDP25 Aggregates via ATG5-Dependent Autophagy Pathway” (Frontiers in Pharmacology, 2021).
